The data set is described as follows: Human HepG2 cell viability assay in 384 well format. It counts as toxicity, cell-based. More on the design: dose 125 nL, time 70.5 hour; cytotoxicity at 70.5 h: concentration not given beside the values. The settings on record: HepG2 cells, read-out: Inhibition.

Each structure is given as a SMILES string.

As to `Cc1cc2ncn(C(=O)N3CCCC3)c2cc1C`, the cytotoxicity at 70.5 h was -2.26%.

As for `CCCS(=O)(=O)N1CCN(Cc2ccco2)CC1`, the cytotoxicity at 70.5 h was -7.67%.

In the case of `NC(=O)c1cc(CC2CCCN(c3cnccn3)C2)ncn1` (stereo not given), the cytotoxicity at 70.5 h is -6.16%.

In the case of `CCCc1cc(C(=O)N[C@@H]2CCC[C@@H](N3CCCC3)[C@@H]2O)no1`, the cytotoxicity at 70.5 h is -4%.

For the compound `Cc1ncc(CN2CCC(c3nc(O)cc(-c4ccsc4)n3)CC2)cn1`, the cytotoxicity at 70.5 h was -3.5%.

As to `c1ncc(CN2CC(Cc3nccc4cc[nH]c34)C2)cn1`, the cytotoxicity at 70.5 h is -1.22%.

As to `CC(C)c1nnc(CCC(=O)N2CCOC(c3cnccn3)C2)o1` (stereo not given), the cytotoxicity at 70.5 h was -5.45%.

Turning to `O=C(O)c1ccccc1-n1cnc(CN2CCCCCC2)c1`, the cytotoxicity at 70.5 h is -1.66%.

On to `CN1CCNCC(Cc2cnc3ccccc3c2)C1` (stereo not given), for which the cytotoxicity at 70.5 h is -3.02%.

Take `Fc1ccc(Oc2nccnc2C2CCN(C3CCOCC3)CC2)cc1`: the cytotoxicity at 70.5 h is -3.07%.

`CN1CCCC(c2cccc(-c3cccc(Cl)c3)n2)C1` (stereo not given): the cytotoxicity at 70.5 h was 18%.

In the case of `c1ccc(CN2CCCC[C@H]3CN(c4ncccn4)C[C@H]32)cc1`, the cytotoxicity at 70.5 h is -6.75%.

Take `c1ccc2ncc(CC3CCNC3)cc2c1` (stereo not given): the cytotoxicity at 70.5 h came out at 19.8%.

For `COc1ccccc1C(=O)N1C[C@@H]2CCCCN(CC(N)=O)[C@@H]2C1`, the cytotoxicity at 70.5 h was -11.4%.

For the compound `O=S(=O)(c1ccccc1)N1C[C@@H]2CCCCN(Cc3cccs3)[C@@H]2C1`, the cytotoxicity at 70.5 h was -17.2%.

Take `Cc1cnc(CC2COCCN(C(=O)c3cncnc3)C2)cn1` (stereo not given): the cytotoxicity at 70.5 h was -5.02%.

`CCS(=O)(=O)N1C[C@@H](O)[C@H](N2CCc3ccccc3C2)C1`: the cytotoxicity at 70.5 h is -5.96%.

For the compound `Cc1ncc(C(=O)N2CCCC2(C)C(=O)N2CCOCC2)c(C)n1` (stereo not given), the cytotoxicity at 70.5 h was -7.99%.

As to `Cc1ccc(S(=O)(=O)N2CCCC(c3n[nH]cc3C(=O)N(C)C)C2)cc1` (stereo not given), the cytotoxicity at 70.5 h stood at 9.91%.

For `CCN(CC)C(=O)CN1CCC(c2nc(C)c3c(n2)N(C)CCC3)CC1`, the cytotoxicity at 70.5 h came to 17.6%.

For `CC(C)C(=O)N1CCCC1c1nc(N(C)C)ncc1-c1ccc(Cl)cc1` (stereo not given), the cytotoxicity at 70.5 h was 6.28%.

Take `NC(=O)c1cccc(C2CCN(c3ncccn3)CC2)n1`: the cytotoxicity at 70.5 h was -13.4%.

As to `Cc1cc(-c2ccccc2)nc(C2CCCN2S(C)(=O)=O)n1` (stereo not given), the cytotoxicity at 70.5 h is -5.33%.

Take `CC(=O)Nc1nccn1Cc1ccccc1Cl`: the cytotoxicity at 70.5 h was -2.67%.

Take `CCC(c1ccncc1)N(C)S(C)(=O)=O` (stereo not given): the cytotoxicity at 70.5 h is -1.1%.

For `O=C(Nc1cccnc1N1CCSCC1)c1ccc2c(c1)CCO2`, the cytotoxicity at 70.5 h came to 53.2%.

As for `CCn1nnnc1-c1cccc(NCc2nc(C)ccc2O)c1`, the cytotoxicity at 70.5 h was -6.25%.

`c1cc2occc2c(N2CCCC(c3nncn3C3CC3)C2)n1` (stereo not given): the cytotoxicity at 70.5 h was found to be 17.6%.

As for `COCCC(C)NS(=O)(=O)c1ccc(C)c(N(C)C)c1` (stereo not given), the cytotoxicity at 70.5 h was -2.25%.

With `CC(c1cccnc1)N(C)S(C)(=O)=O` (stereo not given), the cytotoxicity at 70.5 h is -2.51%.

For `O=C(CCc1nnc(-c2ccccc2)o1)N1CCCC1c1ccc[nH]1` (stereo not given), the cytotoxicity at 70.5 h is -3.43%.

As for `COCCS(=O)(=O)Nc1cc(Cl)ccn1`, the cytotoxicity at 70.5 h is 14.3%.

On to `COCCCN(C)C(=O)c1nnn(-c2ccccc2Cl)c1C`, for which the cytotoxicity at 70.5 h stood at 1.5%.

On to `O=C(CN(Cc1cccs1)C1CCS(=O)(=O)C1)NC1CCCCC1` (stereo not given), for which the cytotoxicity at 70.5 h was found to be 26.4%.

On to `O=C(CN(Cc1cccs1)C1CCS(=O)(=O)C1)NCCc1cccs1` (stereo not given), for which the cytotoxicity at 70.5 h was -2.26%.

For `CC(C)(CNC(=O)C(C)(C)Oc1ccc2c(c1)CCCC2=O)C(N)=O`, the cytotoxicity at 70.5 h is 0.471%.

With `COc1ccccc1NC(=O)c1[nH]nc(C(C)C)c1Br`, the cytotoxicity at 70.5 h was -3.43%.

As to `c1ccc(CN2CCNCC(Cc3cnccn3)C2)cc1` (stereo not given), the cytotoxicity at 70.5 h is -1.06%.

In the case of `Fc1ccccc1CNc1ccnc(C2CCNCC2)c1`, the cytotoxicity at 70.5 h turned out to be 18%.

For the compound `CN(C)CCCN(Cc1ccco1)Cc1ccnn1C1CCCCO1` (stereo not given), the cytotoxicity at 70.5 h was -8.64%.

The values are drawn from ChEMBL document CHEMBL3507680, “University of Dundee, Gates Library screen for HepG2 cell viability”.
